Laboratory results as given in PubChem BioAssay (NCI).
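Protocol summary: plate cells (96-well), add compound at 5 concentrations, incubate 48 h, interpolate endpoints linearly. GI50 is the concentration that inhibits growth by half. TGI marks complete inhibition of growth.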

Assays:
Assay in all cases: growth of human tumour cells (NCI), 48 h
OVCAR-3 ovarian = tested on: OVCAR-3 ovarian
OVCAR-5 ovarian = tested on: OVCAR-5 ovarian
HOP-62 NSCLC = tested on: HOP-62 NSCLC
IGROV1 ovarian = tested on: IGROV1 ovarian
MDA-MB-231 breast = tested on: MDA-MB-231 breast
RXF 393 renal = tested on: RXF 393 renal
U251 CNS = tested on: U251 CNS
SNB-75 CNS = tested on: SNB-75 CNS
NCI-H460 lung = tested on: NCI-H460 lung
UO-31 renal = tested on: UO-31 renal
TK-10 renal = tested on: TK-10 renal
OVCAR-4 ovarian = tested on: OVCAR-4 ovarian
SK-OV-3 ovarian = tested on: SK-OV-3 ovarian
786-0 renal = tested on: 786-0 renal
T-47D breast = tested on: T-47D breast
RPMI-8226 leukemia = tested on: RPMI-8226 leukemia
SW-620 colon = tested on: SW-620 colon
HS 578T breast = tested on: HS 578T breast
UACC-62 melanoma = tested on: UACC-62 melanoma
NCI-H226 lung = tested on: NCI-H226 lung
DU-145 prostate = tested on: DU-145 prostate
MCF7 breast = tested on: MCF7 breast
OVCAR-8 ovarian = tested on: OVCAR-8 ovarian
SNB-19 CNS = tested on: SNB-19 CNS
COLO 205 colon = tested on: COLO 205 colon
MALME-3M melanoma = tested on: MALME-3M melanoma
HL-60(TB) leukemia = tested on: HL-60(TB) leukemia
UACC-257 melanoma = tested on: UACC-257 melanoma
A498 renal = tested on: A498 renal
HT29 colon = tested on: HT29 colon
M14 melanoma = tested on: M14 melanoma
NCI/ADR-RES ovarian = tested on: NCI/ADR-RES ovarian
HOP-92 NSCLC = tested on: HOP-92 NSCLC
CCRF-CEM leukemia = tested on: CCRF-CEM leukemia
ACHN renal = tested on: ACHN renal
NCI-H522 lung = tested on: NCI-H522 lung
NCI-H23 lung = tested on: NCI-H23 lung
SK-MEL-5 melanoma = tested on: SK-MEL-5 melanoma
MOLT-4 leukemia = tested on: MOLT-4 leukemia
SN12C renal = tested on: SN12C renal
CAKI-1 renal = tested on: CAKI-1 renal
SF-268 CNS = tested on: SF-268 CNS
SK-MEL-2 melanoma = tested on: SK-MEL-2 melanoma
KM12 colon = tested on: KM12 colon
LOX IMVI melanoma = tested on: LOX IMVI melanoma
SK-MEL-28 melanoma = tested on: SK-MEL-28 melanoma
EKVX NSCLC = tested on: EKVX NSCLC
SF-295 CNS = tested on: SF-295 CNS
PC-3 prostate = tested on: PC-3 prostate
MDA-MB-435 = tested on: MDA-MB-435
A549 NSCLC = tested on: A549 NSCLC
HCC-2998 colon = tested on: HCC-2998 colon
K-562 leukemia = tested on: K-562 leukemia
HCT-15 colon = tested on: HCT-15 colon
SF-539 CNS = tested on: SF-539 CNS
HCT-116 colon = tested on: HCT-116 colon
BT-549 breast = tested on: BT-549 breast
SR leukemia = tested on: SR leukemia

## COc1ccc(Nc2ncc(-c3ccccc3)o2)cc1OC
OVCAR-3 ovarian
  GI50: > 15.6 µM
  TGI: > 25 µM
OVCAR-5 ovarian
  GI50: > 25 µM
  TGI: > 25 µM
HOP-62 NSCLC
  GI50: > 25 µM
  TGI: > 25 µM
IGROV1 ovarian
  GI50: > 17.1 µM
  TGI: > 25 µM
MDA-MB-231 breast
  GI50: > 25 µM
  TGI: > 25 µM
RXF 393 renal
  GI50: 6.03 µM
  TGI: > 19.5 µM
U251 CNS
  GI50: 11.2 µM
  TGI: > 25 µM
SNB-75 CNS
  GI50: 5.09 µM
  TGI: > 25 µM
NCI-H460 lung
  GI50: 13.4 µM
  TGI: > 25 µM
UO-31 renal
  GI50: 9.29 µM
  TGI: > 25 µM
TK-10 renal
  GI50: 6.07 µM
  TGI: > 25 µM
OVCAR-4 ovarian
  GI50: > 22.2 µM
  TGI: > 25 µM
SK-OV-3 ovarian
  GI50: 12.7 µM
  TGI: > 25 µM
786-0 renal
  GI50: 11.6 µM
  TGI: > 25 µM
T-47D breast
  GI50: 24.7 µM
  TGI: > 25 µM
RPMI-8226 leukemia
  GI50: > 24 µM
  TGI: > 25 µM
SW-620 colon
  GI50: 14.9 µM
  TGI: > 25 µM
HS 578T breast
  GI50: 8.43 µM
  TGI: > 25 µM
UACC-62 melanoma
  GI50: > 22.3 µM
  TGI: > 25 µM
NCI-H226 lung
  GI50: > 20.6 µM
  TGI: > 25 µM
DU-145 prostate
  GI50: 10.7 µM
  TGI: > 25 µM
MCF7 breast
  GI50: > 25 µM
  TGI: > 25 µM
OVCAR-8 ovarian
  GI50: 16.2 µM
  TGI: > 25 µM
SNB-19 CNS
  GI50: > 25 µM
  TGI: > 25 µM
COLO 205 colon
  GI50: 18.4 µM
  TGI: > 25 µM
MALME-3M melanoma
  GI50: > 25 µM
  TGI: > 25 µM
HL-60(TB) leukemia
  GI50: 10.9 µM
  TGI: > 19 µM
UACC-257 melanoma
  GI50: > 25 µM
  TGI: > 25 µM
A498 renal
  GI50: 7.77 µM
  TGI: > 25 µM
HT29 colon
  GI50: 16.3 µM
  TGI: > 25 µM
M14 melanoma
  GI50: > 22.9 µM
  TGI: > 25 µM
NCI/ADR-RES ovarian
  GI50: > 22 µM
  TGI: > 25 µM
HOP-92 NSCLC
  GI50: 6.04 µM
  TGI: > 25 µM
CCRF-CEM leukemia
  GI50: 13.9 µM
  TGI: > 25 µM
ACHN renal
  GI50: 8.59 µM
  TGI: > 25 µM
NCI-H522 lung
  GI50: 9.33 µM
  TGI: > 25 µM
NCI-H23 lung
  GI50: > 25 µM
  TGI: > 25 µM
SK-MEL-5 melanoma
  GI50: > 25 µM
  TGI: > 25 µM
MOLT-4 leukemia
  GI50: 13.6 µM
  TGI: > 25 µM
SN12C renal
  GI50: > 21.6 µM
  TGI: > 25 µM
CAKI-1 renal
  GI50: 7.02 µM
  TGI: > 25 µM
SF-268 CNS
  GI50: > 17.2 µM
  TGI: > 25 µM
SK-MEL-2 melanoma
  GI50: 18.4 µM
  TGI: > 25 µM
KM12 colon
  GI50: 4.35 µM
  TGI: > 25 µM
LOX IMVI melanoma
  GI50: 11.6 µM
  TGI: > 25 µM
SK-MEL-28 melanoma
  GI50: > 25 µM
  TGI: > 25 µM
EKVX NSCLC
  GI50: > 25 µM
  TGI: > 25 µM
SF-295 CNS
  GI50: > 24.2 µM
  TGI: > 25 µM
PC-3 prostate
  GI50: 17.6 µM
  TGI: > 25 µM
MDA-MB-435
  GI50: > 19.5 µM
  TGI: > 25 µM
A549 NSCLC
  GI50: 15.2 µM
  TGI: > 25 µM
HCC-2998 colon
  GI50: > 25 µM
  TGI: > 25 µM
K-562 leukemia
  GI50: 8.3 µM
  TGI: > 25 µM
HCT-15 colon
  GI50: 10.6 µM
  TGI: > 25 µM
SF-539 CNS
  GI50: 5.34 µM
  TGI: > 25 µM
HCT-116 colon
  GI50: 9.37 µM
  TGI: > 25 µM
BT-549 breast
  GI50: 18.6 µM
  TGI: > 25 µM

## O=c1cc(-c2ccc3ccccc3c2)[nH]c2ncccc12
SR leukemia
  TGI: 6.1 µM
OVCAR-3 ovarian
  GI50: 8.25 µM
  TGI: > 100 µM
OVCAR-5 ovarian
  TGI: > 100 µM
HOP-62 NSCLC
  TGI: > 100 µM
IGROV1 ovarian
  TGI: > 100 µM
MDA-MB-231 breast
  TGI: > 100 µM
U251 CNS
  GI50: 4.35 µM
  TGI: > 100 µM
SNB-75 CNS
  TGI: 62.6 µM
NCI-H460 lung
  GI50: 3.79 µM
  TGI: > 100 µM
UO-31 renal
  TGI: > 100 µM
TK-10 renal
  TGI: > 100 µM
OVCAR-4 ovarian
  TGI: > 100 µM
SK-OV-3 ovarian
  TGI: > 100 µM
786-0 renal
  TGI: > 100 µM
T-47D breast
  TGI: > 100 µM
RPMI-8226 leukemia
  TGI: 60.7 µM
SW-620 colon
  TGI: > 100 µM
HS 578T breast
  TGI: > 100 µM
UACC-62 melanoma
  TGI: > 100 µM
NCI-H226 lung
  TGI: > 100 µM
DU-145 prostate
  TGI: > 100 µM
MCF7 breast
  TGI: > 100 µM
OVCAR-8 ovarian
  TGI: > 100 µM
SNB-19 CNS
  TGI: > 100 µM
COLO 205 colon
  TGI: > 100 µM
MALME-3M melanoma
  TGI: > 100 µM
HL-60(TB) leukemia
  GI50: 1.8 µM
  TGI: 4.55 µM
UACC-257 melanoma
  TGI: > 100 µM
A498 renal
  TGI: 48.7 µM
HT29 colon
  TGI: > 100 µM
M14 melanoma
  TGI: > 100 µM
NCI/ADR-RES ovarian
  TGI: > 100 µM
HOP-92 NSCLC
  TGI: 75.6 µM
CCRF-CEM leukemia
  TGI: > 100 µM
ACHN renal
  TGI: > 100 µM
NCI-H522 lung
  TGI: 46 µM
NCI-H23 lung
  TGI: > 100 µM
SK-MEL-5 melanoma
  GI50: 3.46 µM
  TGI: 16.5 µM
MOLT-4 leukemia
  TGI: > 100 µM
SN12C renal
  TGI: > 100 µM
CAKI-1 renal
  GI50: 5.63 µM
  TGI: > 100 µM
SF-268 CNS
  TGI: > 100 µM
SK-MEL-2 melanoma
  TGI: > 100 µM
KM12 colon
  TGI: > 100 µM
LOX IMVI melanoma
  TGI: > 100 µM
SK-MEL-28 melanoma
  TGI: > 100 µM
EKVX NSCLC
  TGI: > 100 µM
SF-295 CNS
  GI50: 9.19 µM
  TGI: > 100 µM
PC-3 prostate
  GI50: 10.4 µM
  TGI: > 100 µM
A549 NSCLC
  TGI: > 100 µM
HCC-2998 colon
  TGI: > 100 µM
K-562 leukemia
  TGI: 12 µM
HCT-15 colon
  TGI: > 100 µM
SF-539 CNS
  TGI: 64.9 µM
HCT-116 colon
  GI50: 3.83 µM
  TGI: > 100 µM
BT-549 breast
  TGI: > 100 µM

## COc1cc(/C=C2\CCCC3=C2N=C2SC(C)=CN2C3c2cc(OC)c(OC)c(OC)c2)cc(OC)c1OC (stereo not drawn)
SR leukemia
  GI50: 0.399 µM
  TGI: 2.01 µM
HOP-62 NSCLC
  GI50: 1.89 µM
  TGI: > 100 µM
MDA-MB-231 breast
  GI50: 2.88 µM
  TGI: > 100 µM
T-47D breast
  GI50: 3.16 µM
  TGI: > 100 µM
RPMI-8226 leukemia
  GI50: 0.391 µM
  TGI: 2.11 µM
DU-145 prostate
  GI50: 2.76 µM
  TGI: > 100 µM
MCF7 breast
  GI50: 2.98 µM
  TGI: > 100 µM
OVCAR-8 ovarian
  GI50: 0.385 µM
  TGI: 3.09 µM
NCI/ADR-RES ovarian
  GI50: 0.334 µM
  TGI: > 100 µM
HOP-92 NSCLC
  GI50: 1.46 µM
  TGI: 4.27 µM
CCRF-CEM leukemia
  GI50: 0.615 µM
  TGI: 4.14 µM
MOLT-4 leukemia
  GI50: 1.77 µM
  TGI: 6.43 µM
SN12C renal
  GI50: 2.44 µM
  TGI: > 100 µM
CAKI-1 renal
  GI50: 2.55 µM
  TGI: > 100 µM
PC-3 prostate
  GI50: 2.19 µM
  TGI: > 100 µM
SF-539 CNS
  GI50: 3.09 µM
  TGI: > 100 µM
HCT-116 colon
  GI50: 0.692 µM
  TGI: 2.01 µM
